Reference: patent US20010051646A1, “Method for the improvement of islet signaling in diabetes mellitus and for its prevention” (priority 2000, published 2001)
Marks after values point to notes of the source that are not given here.

Tests used:
healthy male volunteers = assay: First-human study of P32/98 with extended OGTT: active GLP-1, insulin and glucose; format: in vivo; conditions: for Maximum change in GLP-1, active (0-12h, median) / Maximum change in glucose (0-12h, median) / Maximum change in insulin (0-12h, median): OGTT; for Increase of mean insulin concentration after 75 g glucose at 10 min post-dose: within 40-55 min
Source text: The 36 healthy male subjects were divided into 3 individual groups with each group containing 12 subjects. […] The subjects in all groups who were receiving placebo were given placebo at both dosing intervals.
Each subject participated in the pre-study and experimental phase, which were separated by a washout phase of at least 5 days. The follow-up examination was done at least 7 days after the last dose of study drug. The study procedures of the six periods were identical, except for the dose under investigation.
At each glucose tolerance test, subjects ingested 300 mL of a mono-/disaccharid solution equivalent to 75 g glucose (Dextro®O.G.-T, Boehringer Mannheim, FRG).
An extended OGTT was performed on Day 1 of each dosing period. Subjects ingested 300 mL of a mono-/disaccharid solution equivalent to 75 g glucose. […] Additionally other pharmacodynamic assessments that are well known in the art were taken.
Insulin: 4.7 ml blood was collected into 4.9 ml EDTA-tubes. Samples were centrifuged (1500 g, 10 min) and stored frozen at −70° C. until laboratory analysis.
Glucose: 1.2 ml blood was collected into 1.2 ml sodium fluoride tubes. Plasma samples were centrifuged at 1500 g for 10 min and stored frozen at −70° C. until laboratory analysis. GLP-1: 2.7 ml blood was collected in EDTA tubes and placed on ice or refrigerated, to which a dipeptidyl peptidase IV-inhibitor was added. The inhibitor was prepared in advance by researchers. Blood was collected in tubes and centrifuged immediately at 1000 g for 10 min in refrigerated centrifuge or the blood was placed in ice and centrifuged within 1 hour and aliquoted into equal samples. Blood was stored in appropriate aliquots at −70° C. (to avoid multiple freezing/thawing cycles) until laboratory analysis.

Male Zucker fa/fa rats = assay: Repeated once-daily oral dosing: morning blood glucose and plasma insulin; format: in vivo, rat
Method: The parameters monitored were morning blood glucose and plasma insulin levels. In a day-night profile, glycemia and insulinaemia were monitored from day 16 to day 17. An OGTT was performed finally on day 21 to monitor blood glucose and plasma insulin kinetics to assess changes in glucose tolerance. Glibenclamide (DAB 1996; R011150/33372) was donated by Berlin-Chemie (Berlin, Germany). Male Zucker (fa/fa) rats of the body weight class of 300 g were purchased from Charles River (Sulzfeld, Germany).
Housing Conditions: Animals were kept single-housed under conventional conditions with controlled temperature (22±2° C.) on a 12/12 hours light/dark cycle (light on at 06:00 a.m.). Standard pellets (ssniff®, Soest, Germany) and tap water acidified with HCl were allowed ad libitum.
Catheterization of Carotid Artery: After one week of adaptation carotid catheters were implanted in the rats under general anesthesia (injection of 0.25 ml/kg i.p. Rompun® [2%], Bayer, Germany) and 0.5 ml/kg i.p. Velonarkon® (Arzneimittelwerk Dresden, Germany). The animals were allowed to recover for one week. The catheter was flushed with heparin-saline (100 IU/ml) three times per week.
Thereafter, the non-diabetic Wistar rats were treated orally once daily with RP (5 mg/kg b.w.) or TP (21.61 mg/kg b.w.) and the diabetic Zucker rats were treated orally once daily with RP (1 mg/kg b.w.) or TP (21.61 mg/kg b.w.) for 21 days at 05.00 p.m. (before regular food intake in the dark phase). The controls were given 1% cellulose solution orally (5 ml/kg). Blood samples were taken every morning at 07.30 a.m. from tail veins for measurement of blood glucose and plasma insulin. The last blood samples of this part of the program were taken at 07.30 a. m. on the 15th day to measure blood glucose and plasma insulin. The oral drug therapy was continued for one week. Recording the day-night profile under the above therapy blood glucose (Δt=3 h) and plasma insulin (Δt=3-6 h) were monitored from day 16 (at 05.00 p.m. beginning) to day 17 (at 02.00 p.m. end).
Blood glucose: Glucose levels were measured using the glucose oxidase procedure (Super G Glukosemeβgerät; Dr. Müller Gerätebau, Freital, Germany).
Plasma insulin: Insulin concentrations were assayed by the antibody RIA method (LINCO Research, Inc. St. Charles, Mo., USA).

## isoleucyl thiazolidine hemifumarate [P32/98]
Healthy male volunteers; 7.5 mg
  Baseline-corrected mean peak (Cmax) glucose concentration: exceeded 4.0 mmol/l
  Mean baseline-corrected glucose AUC: > 200 mmol·min/L
Healthy male volunteers; 7.5 mg oral single dose
  Maximum change in GLP-1, active (0-12h, median): 4.10 pmol/L
  Maximum change in glucose (0-12h, median): 4.66 mmol/L
  Maximum change in insulin (0-12h, median): 41.86 μIU/ml
Healthy male volunteers; 7.5 mg, periods 1-3
  Corrected AUC0→180 min of glucose concentrations after OGTT, Mean ± SD: 299.7 ± 111.4 mmol·min
  Corrected Cmax of glucose concentrations 0-3 h after OGTT, Mean ± SD: 4.94 ± 1.58 mmol
  Corrected glucose AUC0→180 min, Estimate (ANOVA comparison versus placebo): 75.8 mmol·min
  Corrected glucose Cmax, Estimate (ANOVA comparison versus placebo): 0.78 mmol
Healthy male volunteers; 15 mg
  Baseline-corrected mean peak (Cmax) glucose concentration: below 3.0 mmol/l
  Increase of group mean active GLP-1 concentration over pre-dose: 11.6 pmol/L
  Mean baseline-corrected glucose AUC: below 200 mmol*min/l
Healthy male volunteers; 15 mg oral single dose
  Maximum change in GLP-1, active (0-12h, median): 10.00 pmol/L
  Maximum change in glucose (0-12h, median): 2.43 mmol/L
  Maximum change in insulin (0-12h, median): 29.67 μIU/ml
Healthy male volunteers; 15 mg, 60 mg and 240 mg dosing groups
  Mean changes of glucose concentration at maximum: 1.71 to 3.41 mmol/L
Healthy male volunteers; 15 mg, periods 1-3
  Corrected AUC0→180 min of glucose concentrations after OGTT, Mean ± SD: 130.9 ± 125.2 mmol·min
  Corrected Cmax of glucose concentrations 0-3 h after OGTT, Mean ± SD: 2.92 ± 1.10 mmol
  Corrected glucose AUC0→180 min, Estimate (ANOVA comparison versus placebo): -93.0 mmol·min
  Corrected glucose Cmax, Estimate (ANOVA comparison versus placebo): −1.24* mmol
Healthy male volunteers; 30 mg oral single dose
  Maximum change in GLP-1, active (0-12h, median): 10.60 pmol/L
  Maximum change in glucose (0-12h, median): 3.38 mmol/L
  Maximum change in insulin (0-12h, median): 59.84 μIU/ml
Healthy male volunteers; 30 mg, periods 1-3
  Corrected AUC0→180 min of glucose concentrations after OGTT, Mean ± SD: 116.1 ± 134.0 mmol·min
  Corrected Cmax of glucose concentrations 0-3 h after OGTT, Mean ± SD: 3.26 ± 1.07 mmol
  Corrected glucose AUC0→180 min, Estimate (ANOVA comparison versus placebo): -107.7 mmol·min
  Corrected glucose Cmax, Estimate (ANOVA comparison versus placebo): -0.90 mmol
Healthy male volunteers; 30 mg
  Increase of mean insulin concentration after 75 g glucose at 10 min post-dose: 56.92 μIU/ml
Healthy male volunteers; 60 mg oral single dose
  Maximum change in GLP-1, active (0-12h, median): 12.20 pmol/L
  Maximum change in glucose (0-12h, median): 2.92 mmol/L
  Maximum change in insulin (0-12h, median): 43.35 μIU/ml
Healthy male volunteers; 60 mg, periods 4-6
  Corrected AUC0→180 min of glucose concentrations after OGTT, Mean ± SD: 151.8 ± 99.2 mmol·min
  Corrected Cmax of glucose concentrations 0-3 h after OGTT, Mean ± SD: 3.50 ± 1.66 mmol
  Corrected glucose AUC0→180 min, Estimate (ANOVA comparison versus placebo): -101.1 mmol·min
  Corrected glucose Cmax, Estimate (ANOVA comparison versus placebo): −1.41* mmol
Healthy male volunteers; 120 mg oral single dose
  Maximum change in GLP-1, active (0-12h, median): 11.10 pmol/L
  Maximum change in glucose (0-12h, median): 2.39 mmol/L
  Maximum change in insulin (0-12h, median): 28.63 μIU/ml
Healthy male volunteers; 120 mg, periods 4-6
  Corrected AUC0→180 min of glucose concentrations after OGTT, Mean ± SD: 126.7 ± 147.3 mmol·min
  Corrected Cmax of glucose concentrations 0-3 h after OGTT, Mean ± SD: 3.09 ± 1.47 mmol
  Corrected glucose AUC0→180 min, Estimate (ANOVA comparison versus placebo): −126-1* mmol*min/
  Corrected glucose Cmax, Estimate (ANOVA comparison versus placebo): −1.82** mmol
Healthy male volunteers; 120 mg
  Increase of mean insulin concentration after 75 g glucose at 10 min post-dose: 30.12 μIU/ml
Healthy male volunteers; 240 mg
  Baseline-corrected mean peak (Cmax) glucose concentration: below 3.0 mmol/l
  Increase of group mean active GLP-1 concentration over pre-dose: 15.99 pmol/L
  Mean baseline-corrected glucose AUC: below 200 mmol*min/l
Healthy male volunteers; 240 mg oral single dose
  Maximum change in GLP-1, active (0-12h, median): 14.50 pmol/L
  Maximum change in glucose (0-12h, median): 1.73 mmol/L
  Maximum change in insulin (0-12h, median): 33.36 μIU/ml
Healthy male volunteers; 240 mg, periods 4-6
  Corrected AUC0→180 min of glucose concentrations after OGTT, Mean ± SD: 24.7 ± 66.6 mmol·min
  Corrected Cmax of glucose concentrations 0-3 h after OGTT, Mean ± SD: 1.99 ± 0.69 mmol
  Corrected glucose AUC0→180 min, Estimate (ANOVA comparison versus placebo): −228.2*** mmol*min/
  Corrected glucose Cmax, Estimate (ANOVA comparison versus placebo): −2.92*** mmol
Healthy male volunteers; 7.5-mg dose level
  Effect on active GLP-1: no effect discernible from placebo treatment
Healthy male volunteers; 15-240 mg
  Increase of glucose concentrations during the OGTT compared with placebo: significantly lower increase
Healthy male volunteers; 120-240 mg
  Insulin concentrations following stimulation with 75 g glucose: appeared to be decreased
Male Zucker fa/fa rats; given once daily
  Hyperinsulinemia: reduced
  Morning blood glucose: normalized
Male Zucker fa/fa rats; once daily oral
  Time until morning blood glucose was reduced to a normal value: ≤ 5 days
Male Zucker fa/fa rats; rat, in vivo
  Plasma insulin during 14 days in comparison to the control animals: slightly decrease insulin concentration
